Where two headings read alike, the source gives them in different places.
Assays:
Format in all cases: cell-based
[1] = Cytotoxicity (CC50) in parallel plates of the anti-HCV assay; conditions: human
Description: (§1) Antiviral activity against HCV is determined using the stably-expressing HCV replicon cell line, AVA5 (sub-genomic (CON1), genotype 1b) (Okuse, et al., Antivir. Res. 65:23 (2005); Korba, et al., Antivir. Res. 77:56 (2008); Blight, et al., Science 290:1972 (2000)). Reductions in intracellular HCV RNA are determined with respect to a cellular control (B-actin) by blot hybridization. Cytotoxicity is assessed by neutral red dye uptake in parallel plates.
(§2) Efficacy and cell cytotoxicity values (EC50, EC90 and CC50) are calculated by linear regression analysis (MS EXCEL®, QuattroPro®) (Korba & Gerin, Antivir. Res. 19:55 (1992); Okuse, et al., Antivir. Res. 65:23 (2005)). The therapeutic index is calculated as CC50/EC50. Recombinant human interferon 2b (PBL laboratories, Inc.) is included as a positive control. Activity is subsequently tested against additional genotypes (e.g., genotype 1a) using the format described for the primary assay. In addition to antiviral assays described herein, several other types of anti-HCV activities can also be assessed using methods known to one of ordinary skill in the art.

HepG2 cells = assay: Mitochondrial Biogenesis Assay; conditions: 7 days, ratio of Complex IV to Frataxin
Description: Cells used: HepG2 cells were obtained from ATCC. Cells are used up to 25 passages from the ATCC freeze.
Mitochondria Biogenesis Assay using HepG2 cells: 150,000 HepG2 cells were plated per well in a 6-well plate. Compounds were diluted in DMSO and further diluted in the plated cells so as to give a top concentration of 50 μM. Five four-fold dilutions were tested in this assay format. Plates were then incubated in a CO2 incubator at 37° C. for 7 days. Medium containing fresh compound was changed on day 3 and 6 of the assay. Cells were harvested on day 7 of the assay.
On day 7, cells were rinsed with 1×DPBS three times and scraped off into 1×DPBS and held on ice. Whole cell protein estimation was determined to make sure that the cells are suspended at a protein concentration of 3-5 mg/ml.
Cells were lysed on ice by addition of 1:10 volume of diluted detergent (MitoSciences) so as to have a final detergent concentration of 2%. Cells were held on ice for 1 hr and then centrifuged at ˜20K×g for 20 min. The supernatant fraction was used for determining solubilized Frataxin and Complex IV using an ELISA kit from MitoSciences. The ratio of Complex IV to Frataxin was used to determine mitochondrial toxicity. DMSO controls were run to determine ratio of Frataxin and Complex IV in control cells. ddC was run as a positive control in the assay.

MT4 Cell Toxicity Assay = conditions: human
Description: Cells used: MT4 cells were obtained from NIH AIDS research & Reference Reagent Program. Cells were used up to passage 30.
Toxicity assay using MTS: 5,000 MT4 cells were plated per well in a 96-well plate. Compounds were diluted in DMSO and further diluted with medium before adding to the plated cells. Plates were then incubated in a CO2 incubator at 37° C. for 6 days.
Cell viability was estimated using MTS, a tetrazolium compound [3-(4,5-dimethylthiazol-2-yl)-5-(3-carboxymethoxyphenyl)-2-(4-sulfophenyl)-2H-tetrazolium], which is converted to a soluble formazan by mitochondrial dehydrogenases in the presence of an electron coupling reagent (phenazine methosulfate; PMS). The formazan product has an absorption maximum around 490 nm. Forty microliters of MTS reagent [MTS (2 mg/ml) and PMS (0.92 mg/ml) mixed at a ratio of 20:1 just before use] was added to each well and plates incubated for 4 hrs at 37° C. Absorbance was read at 490 nm using a Synergy 2 plate reader (BioTek). Data analysis was carried out using the BioTek Gen5 software using a 4-parameter curve fitting function to determine CC50 values.

HCV = assay: Anti-HCV activity (HCV replicon assay); conditions: Hepatitis C virus
Description: as §1
as §2, with “art. […]” for “art.”

[2] = AVA5 HCV replicon cells (sub-genomic CON1, genotype 1b)
[3] = anti-HCV activity, read-out: EC50
[4] = MT4 cells, 6 days, MTS, read-out: MT-4 (TC50)

| Structure (SMILES) | CC50 [1, 2] [µM] | Mitotoxicity (μM) (HepG2 cells) | CC50 at 6 days (MT4 Cell Toxicity Assay; MT-4 (TC50) (μM)) [µM] | EC50 (HCV; [3]) [µM] | CC50 [1] [µM] | CC50 at 6 days (MT4 Cell Toxicity Assay; [4]) [µM] | EC50 (HCV) [µM] |
| --- | --- | --- | --- | --- | --- | --- | --- |
| [N-]=[N+]=N[C@H]1C(O)C(CO)OC1n1cc(C(N)=S)c2c(N)ncnc21 (stereo partly drawn) [Compound l] | 1 to 20 | *** (50-80 μM) | > 100 | 0.1 to 1 |  |  |  |
| COC(=O)[C@H](C)NP(=O)(OC[C@H]1O[C@@H](n2cc(C(N)=S)c3c(N)ncnc32)[C@H](O)[C@@H]1O)Oc1ccccc1 (stereo partly drawn) [Compound g] |  |  |  |  | < 1 | < 1 | < 0.1 |
| CC(C)CCNc1ncnc2c1c(C(=N)NO)cn2[C@@H]1O[C@H](CO)[C@@H](O)[C@H]1O [Compound n] | 1 to 20 |  | > 100 | 1 to 5 |  |  |  |
| C[C@@]1(O)[C@H](O)[C@@H](CO)O[C@H]1n1cc(C#N)c2c(N)ncnc21 [Compound j] |  | ** (20-50 μM) | 20 to 100 | 0.1 to 1 |  |  |  |
| C[C@@]1(F)[C@H](O)[C@@H](CO)O[C@H]1n1cc(-c2cccs2)c2c(N)ncnc21 [Compound f] |  | * (up to 20 μM) |  | > 5 |  |  |  |
| C[C@]1(O)C(n2cc(C(N)=S)c3c(N)ncnc32)O[C@H](CO)[C@H]1O (stereo partly drawn) [Compound d] |  | * (up to 20 μM) | 1 to 20 | 1 to 5 |  |  |  |
| CNC(=O)c1csc(-c2cn([C@@H]3O[C@H](CO)[C@@H](O)[C@@]3(C)O)c3ncnc(N)c23)c1 [Compound e] | 20 to 100 |  |  |  |  |  |  |
| CC(C)=CCNc1ncnc2c1c(/C(N)=N\O)cn2[C@@H]1O[C@H](CO)[C@@H](O)[C@H]1O [Compound a] | < 1 | * (up to 20 μM) | > 100 | < 0.1 |  |  |  |
| CNC(=O)c1csc(-c2cn([C@@H]3O[C@H](CO)[C@@H](O)[C@H]3O)c3ncnc(N)c23)c1 [Compound o] | 20 to 100 |  |  | 1 to 5 |  |  |  |
| CCCCCCCCCCCCCCCCOCCCOP1(=O)OC[C@H]2O[C@@H](n3cc(C(N)=S)c4c(N)ncnc43)[C@H](O)[C@@H]2O1 (stereo partly drawn) [Compound q] | 1 to 20 |  | < 1 | < 0.1 |  |  |  |
| COC(=O)[C@H](C)NP(=O)(OC[C@H]1O[C@@H](n2cc(C(N)=S)c3c(N)ncnc32)[C@](C)(O)[C@@H]1O)Oc1ccccc1 (stereo partly drawn) [Compound k] |  | * (up to 20 μM) |  |  | 1 to 20 | 20 to 100 | 0.1 to 1 |
| CCCCCCCCCCCCCCCCOCCCOP(=O)(O)OC[C@H]1O[C@@H](n2cc(C#N)c3c(N)ncnc32)[C@H](O)[C@@H]1O [Compound b] | < 1 | * (up to 20 μM) | < 1 | < 0.1 |  |  |  |
| CCCCCCCCCCCCCCCCOCCCOP(=O)(O)OC[C@H]1O[C@@H](n2cc(C(N)=S)c3c(N)ncnc32)[C@H](O)[C@@H]1O [Compound h] | < 1 |  | < 1 | < 0.1 |  |  |  |
| COC(=N)c1cn(CC2(F)COC(CO)C2O)c2ncnc(N)c12 (stereo not drawn) [Compound m] |  |  | 20 to 100 | > 5 |  |  |  |
| Nc1ncnc2c1c(Br)cn2[C@@H]1O[C@H](CO)[C@@H](O)[C@H]1O [Compound r] |  |  | 1 to 20 | 1 to 5 |  |  |  |
| NC(=S)c1cn(C2O[C@H](CO)[C@@H](O)[C@H]2O)c2ncnc(N)c12 (stereo partly drawn) [Compound p] |  | * (up to 20 μM) |  |  | < 1 | < 1 | < 0.1 |
| C[C@@]1(F)[C@H](O)[C@@H](CO)O[C@H]1n1cc(Br)c2c(N)ncnc21 [Compound c] | 20 to 100 |  |  |  |  |  |  |

Reference: patent US20100297079A1, “COMPOUNDS, COMPOSITIONS AND METHODS FOR TREATING VIRAL INFECTION” (Chimerix, Inc., priority 2009, published 2010)
